Structures can show the parent of a compound that is named as a salt.
How the values were obtained:
B16 F0 murine melanoma = assay: Biodistribution study by planar scintigraphic imaging (gamma camera), tumour uptake quantification; assay type: in vivo, C57BL6 male mice; conditions: i.v.
Description: Tumour Implantation. For transplantation, cells grown in monolayer culture to confluence were trypsinized and washed with phosphate buffer saline (PBS). They were resuspended in PBS and each mouse received 0.1 mL subcutaneously (3×10^5 cells) on the left flank in order to allow a tumour growth on the body side. Ten days later, the tumours became palpable with a percentage of tumour take of 98-100%.
The in vivo biodistribution and kinetic profile of each radiolabelled (iodine-125) compound have been studied in C57BL6 male mice bearing the B16 F0 murine melanoma by repeated planar scintigraphic imaging which allows the tumour uptake follow-up in the same animal.
Gamma Camera. In vivo radionuclide imaging was performed using a γ IMAGER (Biospace Mesures, Paris, France) especially dedicated for small animal, a scintigraphic camera with a continuous 4 mm thick×120 mm diameter CsI(Na) crystal, a position-sensitive Hamamatsu R3292 photomultiplier and a 10 cm field of view.
Imaging Protocol. On day 14 after tumour implantation (tumour weight 0.25±0.10 g) each [^125I]-radioiodinated compound was administered intravenously via a tail vein (0.1 μmol, range 3.7 to 7 MBq/animal) in three mice for each compound. At different times after administration (1, 3, 6, 24, 72 hours, 5, 7, 10 and 15 days), mice were anesthetized with 0.2 mL, for a 20 g mouse, of a ketamine-xylazine mixture in saline (1-0.25 mL for 5 mL) by i. p. administration, and repeated planar scintigraphic whole body imaging (mouse laying in anterior position on the camera field) were performed by an acquisition time of 10 min. For this study, the camera was equipped with a 1.8/0.2/20 collimator (hole diameter/septum thickness/height in mm).
Tumoural Radioactivity Quantification Approach. The injected activity to each mouse was determined from scintigraphic imaging of the syringe before and after the injection using the γ-IMAGER.
Regions of interest (ROIs) were delineated over the whole body image: whole body uptake area (or the various fixing areas, eyes, thyroid and abdomen) and one for the tumour uptake area. In the various ROIs, the activity (cpm) was quantified using the Biospace measures γ VISION+software. These values were normalized to the injected dose. For the tumour, the activity was also normalized to the tumour weight. Firstly, the volume was calculated from the two dimensions caliper measurement (Bissery, M. C.; Guenard, D.; Gueritte-Voegelin, F.; Lavelle, F. Experimental antitumour activity of taxotere (RP 56976, NSC 628503) a taxol analogue. Cancer res. 1991, 51, 4845-4852). Secondly, the weight was determined from the volume value corrected by a factor determined from a large panel of experiments (Weight g=volume mm^3×0.6). The data were expressed as % ID/g of B 16F0 melanoma tumour.

| SMILES | melting point | Radioactive concentration in tumour (tumoural uptake) (B16 F0 murine melanoma; 1 H post injection) | Radioactive concentration in tumour (tumoural uptake) (B16 F0 murine melanoma; 6 H post injection) | Radioactive concentration in tumour (tumoural uptake) (B16 F0 murine melanoma; 24 H post injection) | Radioactive concentration in tumour (tumoural uptake) (B16 F0 murine melanoma; 72 H post injection) | Radioactive concentration in tumour (tumoural uptake) (B16 F0 murine melanoma; 120 H post injection) | Radioactive concentration in tumour (tumoural uptake) (B16 F0 murine melanoma; 168 H post injection) | Radioactive concentration in tumour (tumoural uptake) (B16 F0 murine melanoma; 240 H post injection) | Radioactive concentration in tumour (tumoural uptake) (B16 F0 murine melanoma; 360 H (15 days) post injection) | Radioactive concentration in tumour (tumoural uptake) (B16 F0 murine melanoma; 3 H post injection) |
| --- | --- | --- | --- | --- | --- | --- | --- | --- | --- | --- |
| CCN(CCNC(=O)c1ccc2cc(I)ccc2c1)CCOc1cccnc1F.Cl | 157 to 159 °C | – | – | – | – | – | – | – | – | – |
| CCN(CCNC(=O)c1cn2cc(I)ccc2n1)CCOc1cccnc1F.Cl.Cl | 143 to 145 °C | – | – | – | – | – | – | – | – | – |
| CCN(CCNC(=O)c1cnc2cc([125I])ccc2n1)CCOc1cccnc1F [[^125I]11, [^125I]N-[2-[N-ethyl-N-[2-(2-fluoropyridin-3-yloxy)ethyl]amino]ethyl]-6-iodoquinoxaline-2-carboxamide dihydrochloride salt] | – | 12.7 ± 2.3 % ID/g | 18.8 ± 1.6 % ID/g | 18.2 ± 0.6 % ID/g | 10.3 ± 1.7 % ID/g | 5.2 ± 1.2 % ID/g | 3.2 ± 0.4 % ID/g | 1.7 ± 0.4 % ID/g | 0.6 ± 0.3 % ID/g | – |
| CCN(CCNC(=O)c1cnc2cc([125I])ccc2n1)CCNc1cccc(F)n1 [[^125I]17, [^125I]N-[2-[N-ethyl-N-[2-[(6-fluoropyridin-2-yl)amino]ethyl]amino]ethyl]-6-iodoquinoxaline-2-carboxamide dihydrochloride salt] | – | 13.1 ± 6.8 % ID/g | 12.5 ± 3.9 % ID/g | 8.6 ± 0.9 % ID/g | 5.7 ± 1.5 % ID/g | 2.6 ± 0.4 % ID/g | 1.5 ± 0.2 % ID/g | 0.8 ± 0.1 % ID/g | 0.4 ± 0.2 % ID/g | 13.7 ± 6.1 % ID/g |
| CCN(CCF)CCNC(=O)c1cnc2cc([125I])ccc2n1 [[^125I]26, [^125I]N-[2-[[N-ethyl-N-(2-fluoroethyl)]amino]ethyl]-6-iodoquinoxaline-2-carboxamide dihydrochloride salt] | – | 21.4 ± 4.9 % ID/g | 25.0 ± 8.0 % ID/g | 24.8 ± 6.5 % ID/g | – | 8.4 % ID/g | – | 1.6 % ID/g | 0.6 % ID/g | – |
| CCN(CCNC(=O)c1cnc2cc([125I])ccc2n1)Cc1ccnc(F)c1.Cl.Cl [[^125I]34] | – | 10.3 ± 6.6 % ID/g | 15.4 ± 6.7 % ID/g | 16.0 ± 7.4 % ID/g | 10.0 ± 2.6 % ID/g | 7.1 ± 1.8 % ID/g | – | 1.9 ± 0.9 % ID/g | 0.8 ± 0.5 % ID/g | 12.0 ± 4.8 % ID/g |
| CCN(CCNC(=O)c1ccnc(F)c1)CCNC(=O)c1cnc2cc([125I])ccc2n1.Cl.Cl [[^125I]40] | – | 9.6 ± 0.7 % ID/g | 12.1 ± 3.2 % ID/g | 12.1 ± 4.6 % ID/g | 9.6 ± 7.1 % ID/g | 5.1 ± 3.3 % ID/g | – | – | – | 8.8 ± 1.6 % ID/g |
| CCN(CCNC(=O)c1cnc2cc([125I])ccc2n1)CCc1ccnc(F)c1.Cl.Cl [[^125I]47] | – | 12.1 ± 4.1 % ID/g | 14.5 ± 6.6 % ID/g | 11.2 ± 2.5 % ID/g | 7.7 ± 0.9 % ID/g | 5.2 ± 1.7 % ID/g | 3.0 ± 1.0 % ID/g | 1.6 ± 0.5 % ID/g | 1.1 ± 0.3 % ID/g | 13.3 ± 6.0 % ID/g |
| CCN(CCCc1ccnc(F)c1)CCNC(=O)c1cnc2cc([125I])ccc2n1.Cl.Cl [[^125I]53] | – | 9.1 ± 1.8 % ID/g | 14.1 ± 3.9 % ID/g | 16.3 ± 8.9 % ID/g | 9.5 ± 5.9 % ID/g | 5.1 ± 3.3 % ID/g | 2.5 ± 2.1 % ID/g | 1.4 ± 1.0 % ID/g | 0.7 ± 0.5 % ID/g | 9.3 ± 0.6 % ID/g |
| CCN(C/C=C/CF)CCNC(=O)c1cnc2cc([125I])ccc2n1.Cl.Cl [[^125I]57] | – | 10.8 ± 2.3 % ID/g | 13.9 ± 1.3 % ID/g | 15.0 ± 0.5 % ID/g | 10.0 ± 0.9 % ID/g | 5.6 ± 1.0 % ID/g | 3.3 ± 0.6 % ID/g | 1.9 ± 0.3 % ID/g | 1.3 ± 0.6 % ID/g | 12.3 ± 2.8 % ID/g |
| CCN(CCNC(=O)c1ccc2cncc([125I])c2n1)CCOc1cccnc1F.Cl.Cl [[^125I]74] | – | 5.6 ± 1.7 % ID/g | 5.3 ± 2.4 % ID/g | 5.2 ± 2.0 % ID/g | 3.3 ± 2.0 % ID/g | 1.6 ± 0.7 % ID/g | 1.1 ± 0.5 % ID/g | 0.5 ± 0.3 % ID/g | 0.4 ± 0.3 % ID/g | 5.5 ± 2.4 % ID/g |
| CCN(CCNC(=O)c1cccc2nc3cc([125I])ccc3nc12)CCOc1cccnc1F.Cl.Cl [[^125I]85] | – | 11.4 ± 1.7 % ID/g | 13.8 ± 2.5 % ID/g | 13.8 ± 2.3 % ID/g | 5.8 ± 0.2 % ID/g | 3.7 ± 0.6 % ID/g | 2.0 ± 0.9 % ID/g | 1.2 ± 0.5 % ID/g | 0.7 ± 0.4 % ID/g | 12.3 ± 1.7 % ID/g |
| CCN(CC)Cc1ccnc(F)c1CNC(=O)c1cnc2cc([125I])ccc2n1.Cl.Cl [[^125I]92] | – | 5.6 ± 2.0 % ID/g | 6.7 ± 1.9 % ID/g | 6.4 ± 1.8 % ID/g | 4.1 ± 1.5 % ID/g | 2.4 ± 0.7 % ID/g | 1.5 ± 0.4 % ID/g | 0.8 ± 0.3 % ID/g | 0.7 ± 0.1 % ID/g | 6.5 ± 3.2 % ID/g |
| CCN(CC)CCNC(=O)c1cc(F)c2cc([125I])ccc2n1 [[^125I]106, [^125I]N-[2-(diethylamino)ethyl]-4-fluoro-6-iodoquinoline-2-carboxamide] | – | 6.0 ± 1.3 % ID/g | 9.5 ± 1.8 % ID/g | 8.4 ± 0.8 % ID/g | 4.9 ± 1.2 % ID/g | 3.0 ± 0.1 % ID/g | 2.3 ± 0.6 % ID/g | 1.5 ± 0.1 % ID/g | 0.7 ± 0.1 % ID/g | 8.0 ± 0.9 % ID/g |

The next lines start with results.

| melting point | SMILES | Radioactive concentration in tumour (tumoural uptake) (B16 F0 murine melanoma; 1 H post injection) | Radioactive concentration in tumour (tumoural uptake) (B16 F0 murine melanoma; 6 H post injection) | Radioactive concentration in tumour (tumoural uptake) (B16 F0 murine melanoma; 24 H post injection) | Radioactive concentration in tumour (tumoural uptake) (B16 F0 murine melanoma; 72 H post injection) | Radioactive concentration in tumour (tumoural uptake) (B16 F0 murine melanoma; 120 H post injection) | Radioactive concentration in tumour (tumoural uptake) (B16 F0 murine melanoma; 168 H post injection) | Radioactive concentration in tumour (tumoural uptake) (B16 F0 murine melanoma; 240 H post injection) | Radioactive concentration in tumour (tumoural uptake) (B16 F0 murine melanoma; 360 H (15 days) post injection) | Radioactive concentration in tumour (tumoural uptake) (B16 F0 murine melanoma; 3 H post injection) |
| --- | --- | --- | --- | --- | --- | --- | --- | --- | --- | --- |
| 99 to 101 °C (dec.) | CCN(CCNC(=O)c1cnc2cc(I)ccc2n1)CCNc1cccc(F)n1.Cl.Cl | – | – | – | – | – | – | – | – | – |
| 157 to 159 °C | CCN(CCNC(=O)c1ccnc(F)c1)CCNC(=O)c1cnc2cc(I)ccc2n1.Cl.Cl | – | – | – | – | – | – | – | – | – |
| 99 to 101 °C (dec.) | CCN(CCNC(=O)c1ccc2cc(I)ccc2n1)CCOc1cccnc1F.Cl.Cl | – | – | – | – | – | – | – | – | – |
| 127 to 129 °C (dec.) | CCN(CCNC(=O)c1cccc2nc3cc(I)ccc3nc12)CCOc1cccnc1F.Cl.Cl | – | – | – | – | – | – | – | – | – |

Source: patent US9125937B2, “Labelled analogues of halobenzamides as multimodal radiopharmaceuticals and their precursors” (INSTITUT NATIONAL DE LA SANTE ET DE LA RECHERCHE MEDICALE …, priority 2008, dated 2015)
